Read-outs that look alike come from different tables or passages of the source.
What was measured:
HIV-1DV = assay: HIV-1 p24 production in SUP T1 cells; assay type: cell-based; details: Human immunodeficiency virus 1, 96 h; SUP T1, HIV-1DV, four days
HIV-1SKI [1] = assay: Analysis of replicated viral DNA (Hirt fractions), CEM-SS cells; assay type: cell-based
Protocol: Analysis of viral replication. CEM-SS cells (2×10^7) were infected with HIV-1SKI (MOI of I) for 45 minutes at 37 ° C. with gentle mixing. Following virus attachment, the cells were gently pelleted, washed twice and resuspended in complete tissue culture medium. The cells were then divided into aliquots, treated with various concentrations of drug and placed in T75 culture flasks. The cells were incubated at 37° C. for 18-20 hours and then harvested by centriguation. To extract nucleic acids for analysis of HIV-1 integration low- and high-molecular weight DNA were prepared from HIV-1 infected cells (untreated or treated with increasing concentrations of drug) according to the protocol originally described by Hirt (Hirt, B. J., J. Mol. Biol. 26:365-369 (1967)) and modified by Gowda et al., Gowda, et al., J. Immunol. 142:773-780 (1989).
DNA (300 ng), obtained from the low-molecular weight Hirt fractions, was used as the template in PCR analysis undergoing a 30 cycle amplification reaction using the conditions described by Steinkasserer et al. (Steinkasserer, et al., J. Virol. 69:814-824 (1995)). […] PCR products were separated by agarose gel electrophoresis and visualized by ethidium bromide staining.

[2] = target: T1, HIV-1 integrase deletion mutant IN50-288 (Human immunodeficiency virus type 1 group M subtype B, UniProt P12497); assay: Disintegration assay, IN50-288; assay type: biochemical; details: IN50-288, 3 μM
T1 construct: purchased gift of Drs; T. Jenkins and R. Craigie, NIDDK, NIH (not bought)

HIV-1SKI [3] = assay: Single cycle analysis of HIV-1 cDNA, CEM-SS cells; assay type: cell-based; details: 10- to 100-fold over IC50
[4] = parameters: species or system cynomolgus monkeys; details: cynomolgus monkey, in vivo; for AR177 plasma (CMAX): iv
Protocol: Dosing. Twelve experimentally naive cynomolgus monkeys were assigned to four groups of three animals each. Prior to dosing, each animal was lightly sedated with a combination of ketamine (1 0 mg/kg) and diazepam (0.5 mg/kg), and a catheter was introduced into the femoral artery for recording central arterial pressure. Monkeys were given a single intravenous infusion of 5, 20, or 50 mg AR177/kg or saline over ten minutes through a cephalic vein catheter using a Harvard infusion pump. Arterial blood samples were drawn at −10, +10, +20, +40, +60 and +120 minutes relative to the initiation of infusion into EDTA-containing tubes for hematology, complement factors, coagulation assay, serum chemistry, and plasma AR177 determination. At 24 hours post-infusion, blood was drawn via the femoral vein into EDTA-containing tubes for these same parameters. The concentration of AR177 in dosing solutions was confirmed post experiment by absorbance at 280 nm on a spectrophotometer. For the determination of AR177 by HPLC, the plasma fraction was obtained by low speed centrifugation of blood, and stored at −20° C. until used. Electrocardiograms (ECGs), central pressure, and heart rate were recorded continuously for 120 minutes following the initiation of doing. Table E-1 summarizes the study design. The animals were observed twice daily pharmacotoxic signs and general health beginning two days before dosing and for seven days following dosing. The monkeys were not necropsied at the end of the study.
HPLC analysis of AR177 plasma concentration. AR177 was assayed in the plasma using an anion-exchange HPLC method on a Waters HPLC system with a 626 pump, 996 photodiode array detector, 717 autosampler and Millennium system software controlled by an NEC Image 466 computer. Buffer A consisted of 0.1 M Tris base, 20% methanol, pH 12, and Buffer B consisted of 0.1 M Tris base, 1.0 M NaBr, pH 12. The anion-exchange column (Gen-Pak Fax column) was equilibrated at 80% buffer A/20% buffer B for 30 minutes before each HPLC run. Fifty microliters of 0.2˜filtered, neat plasma were analyzed per run. The elusion conditions were: a) five-minute isoaatic run at 80% A/20% B. during which the majority of the plasma proteins eluted, b) 25-minute linear gradient to 30% A/70% B during which AR177 elutes, c) five-minute Socratic run at 30% A/70% B. d) one-minute linear gradient to 100% B. e) two-minute run at 100% B for column clean-up, and fl two-minute linear gradient to 70% A/30% B for the step in the HPLC clean-up. The high pH (12) of the elusion buffers was necessary to dissociate AR177 from tissue constituents, which bind AR177 tightly around physiological pH. AR177 is completely stable at pH 12. This method can clearly distinguish between the full length AR177 and n-1, n-2, etc. species, which are potential metabolic products. The ultraviolet detection wavelength was 260 nm. The flow rate was 0.5 mL/minute in all steps. Column clean up between runs was performed by a 500 pL bolus injection of 0.1 M Tris base, 2 M NaCl, pH 10.5, followed by: a) ten-minute linear gradient to 60% A/40% B. b) one-minute linear gradient to 100% B. c) a three-minute isocratic run at 100% B and d) one-minute linear gradient to 80% A/20% B.
A standard curve was generated by spiking AR177 into cynomolgus monkey plasma in order to achieve concentrations of 0.04 to 128 μ/mL. The plasma standards and unspiked plasma (control) were run on the anion-exchange HPLC column using e above conditions. The Waters Millennium software was used to determine the area under the peak for each AR177 standard at 260 nm. The HPLC peak area versus AR177 concentration was plotted using Cricket Graph III 1.5.1 software. There were one to three HPLC replicate runs per AR177 standard. The limit of quantitation was 25 ng/mL (50 pL injection), whereas the limit of detection was 5 ng/mL (50 pL injection). […]

[5] = target: T2, HIV-1 integrase deletion mutant IN1-212 (Human immunodeficiency virus type 1 group M subtype B, UniProt P12497); assay: Disintegration assay, IN1-212; assay type: biochemical
T2 construct: purchased gift of Drs; T. Jenkins and R. Craigie, NIDDK, NIH (not bought)

HIV-1 integrase IN1-288 = target: T3, HIV-1 integrase IN1-288 (Human immunodeficiency virus type 1 group M subtype B, UniProt P12497); assay: Disintegration assay, wild-type integrase; assay type: biochemical
T3 construct: purchased gift of Drs; T. Jenkins and R. Craigie, NIDDK, NIH (not bought; the expression system was also provided)

Which IC50 (HIV-1DV) does the source give for `Cc1cn([C@H]2C[C@H](N=[N+]=[N-])[C@@H](CO)O2)c(=O)[nH]c1=O` [AZT, 3′-azido-3′-deoxythymidine] here?
The IC50 was 400 nM.

Which “extent of viral replication (PCR of Hirt DNA)” value (HIV-1SKI [1]) does the source give for “5′-gtggtgggtgggtgggt-3′ [T30177] (GTGGTGGGTGGGTGGGT; phosphorothioate termini, further chemistry not given here) [pPT version of parent compound I100-15, 17 mer]” here?
Its value is “up to an including the production of 2-LTR circles”.

Which results are given for “5′-gtggtgggtgggtgggt-3′ (GTGGTGGGTGGGTGGGT; phosphorothioate termini, further chemistry not given here) [T30177, pPT version of parent compound I100-15, 17 mer]”?
IC50 virus-induced cytopathogenicity (Junin virus; Junin virus): >50 µg/mL; MCC minimum concentration altering normal cell morphology (Junin virus; Junin virus assay): >50 μg/mL; inhibition of disintegration [2]: ≤ 30%; viral cDNA 12 hours post-infection, drug added at time of infection (HIV-1SKI [3]): viral cDNA was detected; initial plasma half-life [4]: 20 to 30 min; initial volume of distribution (Vd) of the three doses [4]: 200 to 248 mL; metabolites in plasma [4]: No metabolites; terminal plasma half-life [4]: approximately 24 hours; Vd ([4]; 5 mg/kg): 247.6 ± 21.4 mL; Vd ([4]; 20 mg/kg): 184.5 ± 14.3 mL; Vd ([4]; 50 mg/kg): 200.7 ± 56.4 mL; AR177 plasma (CMAX) ([4]; 5 mg/kg): 83.2 ± 7.2 µg/mL; AR177 plasma (CMAX) ([4]; 20 mg/kg): 397.8 ± 30.8 µg/mL; AR177 plasma (CMAX) ([4]; 50 mg/kg): 804.7 ± 226.3 µg/mL; IC50 [5]: 600 nM; IC50 virus-induced cytopathogenicity (Vaccinia virus; Vaccinia virus): >200 µg/mL; MCC minimum concentration altering normal cell morphology (Vaccinia virus; Vaccinia virus assay): 400 μg/mL; IC50 (HIV-1 integrase IN1-288): 270 nM
